Assay results as given in ChEMBL document CHEMBL5360530, “Structure activity relationship (SAR) and anticancer activity of pyrrolidine derivatives: Recent developments and future prospects (A review)” (Eur J Med Chem, 2023).

Columns and labels:
MCF7 [1] = experiment: Anticancer activity against human MCF7 cells assessed as cell growth inhibition measured after 24 hrs by MTT assay; type: functional, cell-based; conditions: MCF7, 24 h
HT-29 [2] = experiment: Anticancer activity against human HT-29 cells assessed as cell growth inhibition measured after 24 hrs by MTT assay; type: functional, cell-based; conditions: HT-29, 24 h
MCF7 [3] = experiment: Growth inhibition of human MCF7 cells assessed as cell growth inhibition by SRB assay; type: functional
COS-7 = experiment: Anticancer activity against COS-7 cells assessed as cell growth inhibition at 50 uM measured after 48 hrs by MTT assay relative to control; type: functional; conditions: Chlorocebus aethiops
HepG2 = experiment: Anticancer activity against human HepG2 cell assessed as cell growth inhibition; type: functional, cell-based
PC-3 [4] = experiment: Potency index, ratio of cisplatin IC50 to test compound IC50 for anticancer activity against human PC-3 cells; type: functional
K562 [5] = experiment: Anticancer activity against human K562 cells assessed as cell growth inhibition measured after 48 hrs by MTT assay; type: functional, cell-based; conditions: K562, 48 h
MCF7 [6] = experiment: Anticancer activity against human MCF7 cells assessed as cell growth inhibition measured after 48 hrs by MTT assay; type: functional, cell-based; conditions: MCF7, 48 h
HT-29 [7] = experiment: Anticancer activity against human HT-29 cells assessed as cell growth inhibition measured after 48 hrs by MTT assay; type: functional, cell-based; conditions: HT-29, 48 h
MCF7 [8] = experiment: Anticancer activity against human MCF7 cells assessed as cell growth inhibition measured after 24 hrs by SRB assay; type: functional, cell-based; conditions: MCF7, 24 h
Huh-7 = experiment: Anticancer activity against human Huh-7 cells assessed as cell growth inhibition measured after 24 hrs by SRB assay; type: functional, cell-based; conditions: Huh-7, 24 h
HCT-116 [9] = experiment: Anticancer activity against human HCT-116 cells assessed as cell growth inhibition measured after 24 hrs by SRB assay; type: functional, cell-based; conditions: HCT-116, 24 h
Mahlavu = experiment: Anticancer activity against human Mahlavu cells assessed as cell growth inhibition measured after 24 hrs by SRB assay; type: functional, cell-based
MCF7 [10] = experiment: Anticancer activity against human MCF7 cells assessed as cell growth inhibition by SRB assay; type: functional, cell-based
MDA-MB-435 [11] = experiment: Growth inhibition of human MDA-MB-435 cells assessed as cell growth inhibition by SRB assay; type: functional
MDA-MB-435 [12] = experiment: Anticancer activity against human MDA-MB-435 cells assessed as cell growth inhibition by SRB assay; type: functional, cell-based
PC-3 [13] = experiment: Anticancer activity against human PC-3 cells assessed as cell death at 50 uM measured after 72 hrs by MTT assay relative to control; type: functional
K562 [14] = experiment: Anticancer activity against human K562 cells assessed as cell growth inhibition measured after 48 hrs by WST-1 assay; type: functional, cell-based; conditions: K562, 48 h
MCF7 [15] = experiment: Anticancer activity against human MCF7 cells assessed as cell growth inhibition measured after 48 hrs by WST-1 assay; type: functional, cell-based; conditions: MCF7, 48 h
PC-3 [16] = experiment: Anticancer activity against human PC-3 cell assessed as cell growth inhibition; type: functional, cell-based
HCT-116 [17] = experiment: Anticancer activity against human HCT-116 cell assessed as cell growth inhibition; type: functional, cell-based

Compound: O=C1c2ccccc2C(=O)N1/N=C/c1ccccc1
- IC50 (MCF7 [1]): 293 µM
- IC50 (HT-29 [2]): 644 µM

Compound: O=C(/C=C/c1ccccc1)c1ccc(OCCN2CCCC2)cc1
- GI50 (MCF7 [3]): < 10 µg/mL

Compound: O=C1Nc2ccccc2C12CCNC2c1cccc(F)c1 (stereo unspecified)
- inhibition at 50 µM (COS-7): 0.51%

Compound: O=C(c1c[nH]c2ccccc12)[C@@H]1[C@@H](c2ccc(Cl)cc2Cl)[C@@H]2CSCN2[C@@]12C(=O)Nc1ccccc12
- IC50 (HepG2): 5.5 µM
- Ratio IC50 (PC-3 [4]): >4.3

Compound: COc1cc(OC)c(C2NCCC23C(=O)Nc2ccccc23)cc1OC (stereo unspecified)
- inhibition at 50 µM (COS-7): 0.51%

Compound: COc1cc(/C=N/N2C(=O)c3ccccc3C2=O)cc(OC)c1O
- IC50 (MCF7 [1]): 293 µM
- IC50 (HT-29 [2]): 278 µM

Compound: O=C1CCC(=O)N1CC(=O)N1N=C(c2ccccc2)CC1c1ccc(F)cc1 (stereo unspecified)
- IC50 (K562 [5]): 0.39 µM
- IC50 (MCF7 [6]): 0.39 µM
- IC50 (HT-29 [7]): 0.39 µM

Compound: O=C1CCC(=O)N1CC(=O)N1N=C(c2ccccc2)CC1c1ccc(Cl)c(Cl)c1 (stereo unspecified)
- IC50 (K562 [5]): 61.9 µM
- IC50 (MCF7 [6]): 0.78 µM
- IC50 (HT-29 [7]): 0.39 µM

Compound: O=C1Nc2ccccc2C12CCNC2c1cc(C(F)(F)F)ccc1C(F)(F)F (stereo unspecified)
- inhibition at 50 µM (COS-7): 0.51%

Compound: CCNC(=O)[C@H]1[C@H](c2ccc([N+](=O)[O-])cc2)[C@@]2(C(=O)Nc3ccccc32)[C@H](CC(C)C)N1[C@H](c1ccccc1)[C@@H](O)c1ccccc1
- IC50 (MCF7 [8]): 4.8 µM
- IC50 (Huh-7): 8.2 µM
- IC50 (HCT-116 [9]): 3.9 µM
- IC50 (Mahlavu): 14.9 µM

Compound: N#CC1=C(N)OC2=C(C(=O)CO2)C12C(=O)Nc1ccc(Cl)cc12 (stereo unspecified)
- IC50 (MCF7 [10]): ≥ 53 µM
- GI50 (MDA-MB-435 [11]): 2.1 µM
- IC50 (MDA-MB-435 [12]): ≥ 3.6 µM

Compound: N#CC1=C(N)OC2=C(c3ccccc3C2=O)C12C(=O)Nc1ccc(I)cc12 (stereo unspecified)
- IC50 (MCF7 [10]): ≥ 53 µM
- IC50 (MDA-MB-435 [12]): ≥ 3.6 µM

Compound: COC(=O)[C@H]1C[C@@H](C(=O)OC)C(c2ccccc2)(c2ccccc2)N1C(=O)Cn1cc(C2CCCC2)nn1
- Activity (PC-3 [13]): 30%

Compound: N#CC1=C(N)OC2=C(C(=O)CO2)C12C(=O)Nc1ccc(Br)cc12 (stereo unspecified)
- IC50 (MCF7 [10]): ≥ 53 µM
- GI50 (MDA-MB-435 [11]): 1.8 µM
- IC50 (MDA-MB-435 [12]): ≥ 3.6 µM

Compound: CC(=O)Oc1ccc(C(=O)/C=C2/C(=O)Nc3ccc(S(=O)(=O)N4CCOCC4)cc32)cc1
- IC50 (HCT-116 [9]): 5.07 µM

Compound: N#CC1=C(N)OC2=C(c3ccccc3C2=O)C12C(=O)Nc1ccc(Br)cc12 (stereo unspecified)
- IC50 (MCF7 [10]): ≥ 53 µM
- IC50 (MDA-MB-435 [12]): ≥ 3.6 µM

Compound: COC(=O)[C@H]1C[C@@H](C(=O)OC)C(c2ccccc2)(c2ccccc2)N1C(=O)Cn1cc(CC2CCCCC2)nn1
- Activity (PC-3 [13]): 64%

Compound: CC(C)C[C@@H]1N2[C@H](c3ccccc3)[C@H](c3ccccc3)OC(=O)[C@H]2[C@H](c2ccccc2)[C@@]12C(=O)Nc1ccccc12
- IC50 (MCF7 [8]): 4.8 µM
- IC50 (Huh-7): 8.2 µM
- IC50 (HCT-116 [9]): 3.9 µM
- IC50 (Mahlavu): 14.9 µM

Compound: O=C1c2ccccc2C(=O)N1/N=C/c1ccc(F)c(Br)c1
- IC50 (MCF7 [1]): 293 µM
- IC50 (HT-29 [2]): 254 µM

Compound: COC(=O)[C@H]1C[C@@H](C(=O)OC)C(c2ccccc2)(c2ccccc2)N1C(=O)Cn1cc(CCc2ccccc2)nn1
- Activity (PC-3 [13]): 25%

Compound: COc1ccc(/C=C2\CCC[C@@]3(C2=O)[C@@H](c2ccc(OC)cc2)[C@@H]2CSCN2[C@]32C(=O)Nc3ccccc32)cc1
- IC50 (K562 [14]): 14.7 µM
- IC50 (MCF7 [15]): 24.4 µM

Compound: COC(=O)[C@H]1C[C@@H](C(=O)OC)C(c2ccccc2)(c2ccccc2)N1C(=O)Cn1cc(-c2ccccc2)nn1
- Activity (PC-3 [13]): 30%

Compound: N#CC1=C(N)OC2=C(C(=O)CO2)C12C(=O)Nc1ccccc12 (stereo unspecified)
- IC50 (MCF7 [10]): ≥ 53 µM
- GI50 (MDA-MB-435 [11]): 29.9 µM
- IC50 (MDA-MB-435 [12]): ≥ 3.6 µM

Compound: O=C(/C=C/c1ccc(OCCN2CCCC2)cc1)c1ccc(Cl)cc1Cl
- GI50 (MCF7 [3]): > 80 µg/mL

Compound: Cc1ccc([C@@H]2[C@@H](C(=O)c3c[nH]c4ccccc34)[C@]3(C(=O)Nc4ccccc43)N3CSC[C@@H]23)cc1
- IC50 (HepG2): 5.5 µM
- IC50 (PC-3 [16]): 6 µM
- IC50 (HCT-116 [17]): 9 µM

Compound: O=C(/C=C/c1ccco1)c1ccc(OCCN2CCCC2)cc1
- GI50 (MCF7 [3]): > 80 µg/mL
